Here are results for 67 compounds from patent US8916565B2, “Pyrrolopyrazine-spirocyclic piperidine amides as modulators of ion channels” (priority 2011, dated 2014).

Sequence of human NaV subtype, like NaV 1.7 (Q15858 whole entry): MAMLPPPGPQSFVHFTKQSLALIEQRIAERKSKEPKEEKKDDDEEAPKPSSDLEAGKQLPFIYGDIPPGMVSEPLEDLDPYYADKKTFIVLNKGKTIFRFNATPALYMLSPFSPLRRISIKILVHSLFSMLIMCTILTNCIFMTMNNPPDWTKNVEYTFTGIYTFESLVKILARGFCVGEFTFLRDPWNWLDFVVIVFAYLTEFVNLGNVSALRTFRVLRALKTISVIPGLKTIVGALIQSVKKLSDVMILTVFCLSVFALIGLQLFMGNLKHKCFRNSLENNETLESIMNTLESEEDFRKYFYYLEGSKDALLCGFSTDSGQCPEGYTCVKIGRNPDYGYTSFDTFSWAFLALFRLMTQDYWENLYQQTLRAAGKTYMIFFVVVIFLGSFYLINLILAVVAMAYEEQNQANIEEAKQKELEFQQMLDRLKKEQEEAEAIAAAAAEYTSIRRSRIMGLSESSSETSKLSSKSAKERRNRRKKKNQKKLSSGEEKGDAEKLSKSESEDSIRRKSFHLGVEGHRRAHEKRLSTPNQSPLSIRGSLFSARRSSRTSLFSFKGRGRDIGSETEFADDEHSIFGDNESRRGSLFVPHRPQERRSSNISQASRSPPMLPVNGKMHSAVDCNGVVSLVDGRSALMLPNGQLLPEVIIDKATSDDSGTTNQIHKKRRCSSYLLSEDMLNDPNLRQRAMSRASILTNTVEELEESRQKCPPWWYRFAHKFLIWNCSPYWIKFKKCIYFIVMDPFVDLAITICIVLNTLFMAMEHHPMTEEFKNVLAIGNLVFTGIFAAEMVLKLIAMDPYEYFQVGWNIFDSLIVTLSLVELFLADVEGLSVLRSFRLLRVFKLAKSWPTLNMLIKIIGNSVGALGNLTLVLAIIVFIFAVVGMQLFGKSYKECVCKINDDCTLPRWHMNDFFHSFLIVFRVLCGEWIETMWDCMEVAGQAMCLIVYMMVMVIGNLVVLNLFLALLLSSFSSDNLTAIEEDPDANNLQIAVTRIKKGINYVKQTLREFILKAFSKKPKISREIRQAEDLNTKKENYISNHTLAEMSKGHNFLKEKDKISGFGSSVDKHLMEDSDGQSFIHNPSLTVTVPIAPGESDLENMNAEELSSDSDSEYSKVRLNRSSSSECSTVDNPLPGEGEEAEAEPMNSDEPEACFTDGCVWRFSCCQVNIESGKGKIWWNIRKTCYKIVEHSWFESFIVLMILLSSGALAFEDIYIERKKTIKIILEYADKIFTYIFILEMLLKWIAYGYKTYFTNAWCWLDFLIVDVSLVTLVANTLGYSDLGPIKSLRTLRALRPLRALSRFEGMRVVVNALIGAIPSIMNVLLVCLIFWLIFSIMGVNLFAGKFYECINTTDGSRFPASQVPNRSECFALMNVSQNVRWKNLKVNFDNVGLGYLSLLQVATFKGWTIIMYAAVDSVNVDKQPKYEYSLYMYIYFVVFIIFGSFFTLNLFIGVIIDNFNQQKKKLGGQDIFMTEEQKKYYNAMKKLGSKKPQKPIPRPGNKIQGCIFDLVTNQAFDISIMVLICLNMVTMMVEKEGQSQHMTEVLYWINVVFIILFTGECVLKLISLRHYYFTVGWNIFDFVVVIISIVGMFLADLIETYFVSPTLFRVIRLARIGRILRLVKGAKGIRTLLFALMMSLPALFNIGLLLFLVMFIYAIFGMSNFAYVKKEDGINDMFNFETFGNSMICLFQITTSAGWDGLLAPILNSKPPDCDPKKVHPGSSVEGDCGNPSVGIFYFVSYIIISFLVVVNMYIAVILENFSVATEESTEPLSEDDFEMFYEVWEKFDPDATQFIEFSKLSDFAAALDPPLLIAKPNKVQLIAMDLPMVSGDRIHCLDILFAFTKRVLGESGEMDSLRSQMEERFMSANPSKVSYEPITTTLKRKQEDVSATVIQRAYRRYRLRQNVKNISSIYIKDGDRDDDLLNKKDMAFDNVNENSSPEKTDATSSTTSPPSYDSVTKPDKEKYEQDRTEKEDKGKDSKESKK

The test addresses human NaV subtype, like NaV 1.7 (Homo sapiens, UniProt Q15858). In words: E-VIPR optical membrane potential assay with electrical stimulation. The format is cell-based. The conditions noted are these: active against one or more sodium channels; Table 3 does not name the assay or NaV subtype; read-out: Binned Activity Data (IC50).
The term IC50 denotes the concentration at which inhibition is half-maximal. For `Cc1cc(C(=O)N2CCC3(CC2)c2ccc(C(=O)C(C)(C)C)n2CCN3C)ccc1C(C)(C)O` [Compound 523], the IC50 is at most 2 µM. Regarding `Cc1cc(C(=O)N2CCC3(CC2)NCC(C)n2c(C(=O)C(F)(F)F)ccc23)ccc1OC(C)C` (stereo not shown) [Compound 524], the IC50 was at most 2 µM. With `CC[C@H](C)Oc1ccc(C(=O)N2CCC3(CC2)c2ccc(C(F)(F)F)n2CCN3C)cc1OC` [Compound 525] the figure was at most 2 µM; with `Cc1cc(C(=O)N2CCC3(CC2)c2c(C#N)cc(C(F)(F)F)n2CCN3C)ccc1OC(C)C` [Compound 526], at most 2 µM.

For `O=C(c1ccnc2ccccc12)N1CCC2(CC1)NCCn1c(C(F)(F)F)ccc12` [Compound 527], the IC50 is above 5 µM. The same measure for `CC(C)Oc1ccc(C(=O)N2CCC3(CC2)c2ccc(C(=O)C(F)(F)F)n2CCN3C)cc1Cl` [Compound 528]: at most 2 µM; for `COc1ccc(C(=O)N2CCC3(CC2)c2cc(C(=O)C(F)(F)F)cn2C(C)(C)CN3C)cc1Cl` [Compound 529]: above 5 µM; for `CC(C)CCOc1ccc(C(=O)N2CCC3(CC2)c2ccc(Cl)n2CCN3C)cc1` [Compound 530]: at most 2 µM. With `Cc1cc(C(=O)N2CCC3(CC2)c2ccc(Cl)n2CCN3C)ccc1OCC(C)(C)O` [Compound 531] the figure was at most 2 µM; with `CC(=O)c1ccc2n1CCN(C)C21CCN(C(=O)c2ccc(S(=O)(=O)NC3CC3)cc2)CC1` [Compound 532], above 5 µM; with `CNC(=O)N1CCn2c(C(F)(F)F)ccc2C12CCN(C(=O)c1ccc(OC(C)C)c(C)c1)CC2` [Compound 533], at most 2 µM. With `Cc1cc(C(=O)N2CCC3(CC2)c2ccc(CC(F)(F)F)n2CCN3C)ccc1S(=O)(=O)C(C)C` [Compound 534] the figure was above 5 µM; with `COc1cc(C(=O)N2CCC3(CC2)c2ccc(C(C)=O)n2CCN3C)ccc1OC(C)C` [Compound 535], above 5 µM. On to `CC(=O)c1ccc2n1C(C)(C)CN(C)C21CCN(C(=O)c2ccc(OC(C)C)c(C(F)(F)F)c2)CC1` [Compound 536], for which the IC50 lay in the range of 2 to 5 µM. The same measure for `CCc1ccc(C(=O)N2CCC3(CC2)c2ccc(C(=O)C(F)(F)F)n2CCN3C)cc1OC` [Compound 537]: at most 2 µM; for `CCCOc1ccc(C(=O)N2CCC3(CC2)c2ccc(C(=O)C(F)(F)F)n2CCN3C)cc1OC` [Compound 538]: at most 2 µM.

In the case of `CCCCOc1cc(C(=O)N2CCC3(CC2)c2ccc(Cl)n2CCN3C)ccc1OC` [Compound 539], the 50% inhibitory concentration (IC50) was above 5 µM. On to `COc1cc(C(=O)N2CCC3(CC2)c2c(F)cc(C(F)(F)F)n2CCN3C)ccc1OCCO` [Compound 540], for which the IC50 was above 5 µM.

Regarding `COc1cc(C(=O)N2CCC3(CC2)c2ccc(C(C)=O)n2CCN3C)ccc1OCCOC(F)(F)F` [Compound 541], the IC50 was at most 2 µM. Regarding `Cc1cc(C(=O)N2CCC3(CC2)c2ccc(S(C)(=O)=O)n2CCN3C)ccc1OC(C)C` [Compound 542], the IC50 is above 5 µM. With `COc1cc(C(=O)N2CCC3(CC2)c2ccc(C(F)(F)F)n2CCN3C)cc(F)c1OC(C)C` [Compound 544] the figure was at most 2 µM; with `COc1cc(C(=O)N2CCC3(c4ccc(C(F)(F)F)n4CCN3C)C(C)C2)ccc1OC(C)C` (stereo not shown) [Compound 545], 2 to 5 µM. The same measure for `CC(C)Oc1ccc(C(=O)N2CCC3(CC2)c2ccc(C(F)(F)F)n2CCN3C)c(F)c1` [Compound 546]: at most 2 µM; for `COc1cc(C(=O)N2CCC3(CC2)c2ccc(CC(F)(F)F)n2CCN3C)ccc1OC(C)C` [Compound 547]: above 5 µM; for `CC(C)Oc1ccc(C(=O)N2CCC3(CC2)c2c(C#N)cc(C(F)(F)F)n2CCN3C)cc1Cl` [Compound 548]: at most 2 µM. On to `CC(C)Oc1ccc(C(=O)N2CCC3(CC2)NCCn2c(C(F)(F)F)ccc23)cc1CO` [Compound 549], for which the IC50 is at most 2 µM. Turning to `CCCOc1ccc(C(=O)N2CCC3(CC2)NCCn2c(C(F)(F)F)ccc23)cc1OC` [Compound 550], the concentration for half-maximal inhibition (IC50) was at most 2 µM. With `COc1cc(C(=O)N2CCC3(CC2)NC(C)(C)Cn2c(C(F)(F)F)ccc23)ccc1OC(C)C` [Compound 551] the figure was at most 2 µM; with `C[C@H]1Cn2c(C(=O)C(F)(F)F)ccc2C2(CCN(C(=O)c3ccccc3OC(F)F)CC2)N1C` [Compound 552], at most 2 µM. With `CN1CCn2c(C(=O)C(F)(F)F)ccc2C12CCN(C(=O)c1ccc(COCC(F)(F)F)cc1)CC2` [Compound 553] the figure was at most 2 µM; with `COc1cc(C(=O)N2CCC3(CC2)c2c(Cl)cc(C(F)(F)F)n2CCN3C)ccc1COCCC(F)(F)F` [Compound 554], at most 2 µM. On to `COc1cc(C(=O)N2CCC3(CC2)c2ccc(C(=O)C(F)(F)F)n2CCN3C)ccc1-c1ccccc1` [Compound 555], for which the concentration for half-maximal inhibition (IC50) was at most 2 µM. Take `Cc1nc(C(=O)N2CCC3(CC2)c2ccc(C(=O)C(F)(F)F)n2C(C)CN3C)ccc1OC(C)C` (stereo not shown) [Compound 556]: the half-inhibitory concentration (IC50) was at most 2 µM.

In the case of `CC(C)S(=O)(=O)c1ccc(C(=O)N2CCC3(CC2)NC(C)(C)Cn2c(C(=O)C(F)(F)F)ccc23)cc1` [Compound 557], the IC50 is at most 2 µM.

With `CC(=O)c1ccc2n1CCN(C)C21CCN(C(=O)c2ccc(OC(C)C)c(CO)c2)CC1` [Compound 558], the IC50 is above 5 µM. Regarding `CC(=O)c1ccc2n1CCN(C)C21CCN(C(=O)c2ccc(C3CCCCC3)cc2)CC1` [Compound 559], the IC50 is at most 2 µM.

In the case of `Cc1cc(C(=O)N2CCC3(CC2)c2c(Cl)cc(C(F)(F)F)n2CCN3C)ccc1OC(C)C` [Compound 560], the IC50 was at most 2 µM. For the compound `CNS(=O)(=O)c1ccc(C(=O)N2CCC3(CC2)c2ccc(C(=O)C(C)(C)C)n2CCN3C)cc1C` [Compound 561], the IC50 was at most 2 µM. Turning to `CC(C)Oc1ccc(C(=O)N2CCC3(CC2)c2c(F)cc(C(F)(F)F)n2CCN3C)cc1` [Compound 562], the IC50 is at most 2 µM.

As to `CC1(C)Cn2c(C(=O)C(F)(F)F)ccc2C2(CCN(C(=O)c3ccc(C4CCCCC4)cc3)CC2)N1` [Compound 563], the IC50 was at most 2 µM. With `CC(C)Oc1ccc(C(=O)N2CCC3(CC2)c2ccc(C(=O)C(F)(F)F)n2C[C@@H](C)N3C)c(F)c1` [Compound 564] the figure was at most 2 µM; with `COc1ccc(C(=O)N2CCC3(CC2)c2cc(C(=O)C(F)(F)F)cn2C(C)(C)CN3C)c(F)c1` [Compound 565], 2 to 5 µM. Consider `COc1ccc(C(=O)N2CCC3(CC2)c2ccc(C(=O)C(C)(C)C)n2CCN3C)cc1C(F)(F)F` [Compound 566], for which the IC50 was at most 2 µM. The same measure for `CC1(C)Cn2c(C(=O)C(F)(F)F)ccc2C2(CCN(C(=O)c3ccc(O)c(C(F)(F)F)c3)CC2)N1` [Compound 567]: at most 2 µM; for `CC(C)Oc1ccc(C(=O)N2CCC3(CC2)c2ccc(C(F)(F)F)n2CCN3C)cc1F` [Compound 568]: at most 2 µM; for `O=C(c1ccc(S(=O)(=O)NC2CC2)cc1)N1CCC2(CC1)NCCn1c(C(F)(F)F)ccc12` [Compound 569]: at most 2 µM. With `Cc1cc(C(=O)N2CCC3(CC2)c2ccc(C(=O)C(F)(F)F)n2CCN3C)ccc1OCC(C)(C)O` [Compound 570] the figure was at most 2 µM.

As for `Cc1cc(C(=O)N2CCC3(CC2)c2ccc(C(F)(F)F)n2CCN3CC(N)=O)ccc1OC(C)C` [Compound 571], the half-maximal inhibitory concentration (IC50) was 2 to 5 µM. Take `CC[C@@H](C)Oc1ccc(C(=O)N2CCC3(CC2)c2ccc(C(C)=O)n2CCN3C)cc1OC` [Compound 572]: the IC50 is at most 2 µM. In the case of `Cc1cc(C(=O)N2CCC3(CC2)c2ccc(C(=O)C(F)(F)F)n2CCN3C)ncc1OC(C)C` [Compound 573], the IC50 was at most 2 µM.

As for `COc1cc(C(=O)N2CCC3(CC2)c2ccc(C(F)(F)F)n2CCN3CC2CC2)ccc1OC(C)C` [Compound 574], the IC50 was at most 2 µM.

In the case of `CN1CCn2c(C(=O)C(F)(F)F)ccc2C12CCN(C(=O)c1ccc(C(C)(C)O)c(F)c1)CC2` [Compound 575], the IC50 is at most 2 µM.

`CC1(C)Cn2c(C(=O)C(F)(F)F)ccc2C2(CCN(C(=O)c3ccc(-c4ccccc4)c(F)c3)CC2)N1` [Compound 576]: the IC50 was at most 2 µM. With `CC(=O)c1ccc2n1CCN(C)C21CCN(C(=O)c2ccc(OC(F)(F)F)cc2)CC1` [Compound 577] the figure was above 5 µM; with `COc1ccc(C(=O)N2CCC3(CC2)c2ccc(C(=O)C(C)(C)C)n2CCN3C)c(F)c1` [Compound 578], 2 to 5 µM; with `CCOc1cc(C(=O)N2CCC3(CC2)c2ccc(C(F)(F)F)n2CCN3C)ccc1CO` [Compound 579], at most 2 µM. Regarding `Cc1cc(C(=O)N2CCC3(CC2)c2ccc(C(F)(F)F)n2CCN3C)ccc1OC(C)C` [Compound 580], the IC50 was at most 2 µM. For `CN1CCn2c(C(F)(F)F)ccc2C12CCN(C(=O)c1ccnc(N3CCCCC3)c1)CC2` [Compound 581], the IC50 lay within 2 to 5 µM. With `CN1CCn2c(C(=O)C(F)(F)F)ccc2C12CCN(C(=O)c1ccc(N3CCCCC3)cc1)CC2` [Compound 582], the IC50 is at most 2 µM. `Cc1cc(C(=O)N2CCC3(CC2)c2ccc(C(F)(F)F)n2CCN3C)ccc1OCCCO` [Compound 583]: the IC50 was at most 2 µM.

Take `CN1CCn2c(C(F)(F)F)ccc2C12CCN(C(=O)c1ccc(S(=O)(=O)NC3CC3)cc1)CC2` [Compound 584]: the IC50 was at most 2 µM. With `CN1CCn2c(C(=O)C3(C)CC3)ccc2C12CCN(C(=O)c1ccc(COCCC(F)(F)F)cc1)CC2` [Compound 585] the figure was at most 2 µM. With `CCCOc1ccc(C(=O)N2CCC3(CC2)c2ccc(C(C)=O)n2CCN3C)cc1OC` [Compound 586] the figure was 2 to 5 µM; with `CN1CCn2c(ccc2C(F)(F)C(F)(F)F)C12CCN(C(=O)c1ccc(C3(O)CCCC3)cc1)CC2` [Compound 587], at most 2 µM; with `CC(C)Oc1ccc(C(=O)N2CCC3(CC2)c2cc(C(=O)C(F)(F)F)cn2C(C)(C)CN3C)cc1Cl` [Compound 588], above 5 µM.

Turning to `COc1cc(C(=O)N2CCC3(CC2)NC(C)(C)Cn2c(C(=O)C(F)(F)F)ccc23)ccc1-c1ccccc1` [Compound 589], the IC50 was at most 2 µM. The same measure for `CCCOc1ccc(C(=O)N2CCC3(CC2)c2ccc(Cl)n2CCN3C)cc1` [Compound 590]: 2 to 5 µM.
